# From patent publication US20260137689A1, “INTEGRATION OF MOLECULAR MECHANISMS IN THE STRIATUM AS A COMBINATION DRUG STRATEGY FOR THE TREATMENT OF PSYCHIATRIC AND NEUROLOGICAL DISORDERS IN WHICH ANHEDONIA OR MOTIVATION-RELATED DYSFUNCTION EXISTS” (Alto Neuroscience, Inc., priority 2021, published 2026)
# Where two headings read alike, the source gives them in different places.
# Assays:
# D2 receptor = conditions: striatal slices from reserpinized rats (ref. 33); cited from earlier work
# dopamine release [1] = conditions: rodents (ref. 43); cited from earlier work
# Parkinson's models = Parkinson's models (ref. 47); cited from earlier work
# dopamine release [2] = conditions: humans (ref. 44); cited from earlier work
# D2/D3 receptor = conditions: rodents (refs. 45, 46); cited from earlier work
# C57/BL6 mice = test: Forced swim test; type: in vivo; conditions: FIG. 2 doses: imipramine 20 mg/kg, istradefylline 0.1 mg/kg, varenicline 0.17 mg/kg, alone or combined
# Description: FIG. 2 is a bar graph of the time during a forced swim test after treatment with saline, 20 mg/kg for imipramine, 0.1 mg/kg for istradefylline, 0.17 mg/kg for varenicline, and a combination of 0.1 mg/kg for istradefylline and 0.17 mg/kg for varenicline.
# Without being bound by a particular theory, the inventors theorized that an increase in dopamine release, when coupled with A2A antagonism, could result in an antidepressant response-essentially aiming to replace direct D2 agonism with a drug that leads to its release and to an increase in D2/D3 receptor availability. […] Of note, however, varenicline has been approved in humans for smoking cessation, and initially carried a black box for increased risk for development of depression, a seemingly opposite outcome to our goal. To determine whether such a combination is viable, we conducted forced swim tests in C57/BL6 mice. […] One such example is 5 mg-40 mg of istradefylline together with 0.25-3 mg of varenicline.
# To determine whether such a combination is viable, forced swim tests in C57/BL6 mice were conducted. The forced-swim test is used to assess depressive-like behavior in mice. The time spent immobile is considered a measure of depressive-like behavior. Immobility scores for each mouse were determined by manual scoring.
# [3] = system: release of gamma-aminobutyric acid (GABA); conditions: cited from earlier work
compound,measurement,setting,value
CCNC(=O)[C@H]1O[C@@H](n2cnc3c(N)nc(NCCc4ccc(CCC(=O)O)cc4)nc32)[C@H](O)[C@@H]1O [CGS 21680],effect on affinity of the D2 receptor for the D2/D3 agonist quinpirole,D2 receptor,decreased the affinity
c1cnc2cc3c(cc2n1)[C@@H]1CNC[C@H]3C1 [varenicline],dopamine release,dopamine release [1],increase dopamine release
same,motor functioning,Parkinson's models,improve motor functioning
same,dopamine release,dopamine release [2],increase dopamine release
same,D2/D3 receptor availability,D2/D3 receptor,increase D2/D3 receptor availability
same,antidepressant response (time spent immobile) in forced swim test,C57/BL6 mice,by themselves ineffective
CN(C)CCCN1c2ccccc2CCc2ccccc21 [imipramine],antidepressant response (time spent immobile) in forced swim test,C57/BL6 mice,decrease in immobility
"NC(C(=O)O)c1cc(O)ccc1Cl (racemic) [CHPG, (RS)-2-chloro-5-hydroxyphenylglycine]",effect on GABA release by itself,[3]; alone (ref. 38),ineffective by itself
same,effect on quinpirole-induced change of neuronal activity (GABA release),[3]; with the D2/D3 agonist quinpirole (ref. 38),able to counteract the effects
Nc1nc(NCCc2ccc(O)cc2)nc2nc(-c3ccco3)nn12 [ZM 241385],effect on affinity of the D2 receptor for the D2/D3 agonist quinpirole,D2 receptor,increased the affinity
